Assay results reported in patent publication US4200628A, “Novel aminoglycoside derivatives” (Shionogi & Co., Ltd., priority 1977, dated 1980).
Converted amounts (≈) assume the structure as drawn. Where two headings read alike, the source gives them in different places.

How the values were obtained:
Assay in all cases: MIC, antimicrobial activity
[1] = tested on: Escherichia coli NIHJ JC-2; settings: for MIC: Escherichia coli; for Minimum Inhibitory Concentration (MIC): Escherichia coli NIHJ JC-2
Proteus inconstans In-27 = assay type: cell-based; settings: for MIC: Providencia alcalifaciens, IN27, read-out: Minimum Inhibitory Concentration (MIC), Proteus inconstans In-27, tobramycin resistant strain; for Minimum Inhibitory Concentration (MIC): Proteus inconstans In-27, tobramycin resistant strain
[2] = tested on: Klebsiella pneumoniae Kl-38; settings: for MIC: Klebsiella pneumoniae; for Minimum Inhibitory Concentration (MIC): Klebsiella pneumoniae Kl-38
Proteus rettgeri Ret 40 = settings: for MIC: Providencia rettgeri, RET40, read-out: Minimum Inhibitory Concentration (MIC), Proteus rettgeri Ret 40; for Minimum Inhibitory Concentration (MIC): Proteus rettgeri Ret 40
[3] = tested on: Pseudomonas aeruginosa Ps-24; settings: for MIC: Pseudomonas aeruginosa; for Minimum Inhibitory Concentration (MIC): Pseudomonas aeruginosa Ps-24
[4] = tested on: Escherichia coli W-677/JR-762; settings: for Minimum Inhibitory Concentration (MIC): Escherichia coli W-677/JR-762, tobramycin resistant strain
[5] = tested on: Enterobacter cloacae TB-718; assay type: cell-based; settings: for Minimum Inhibitory Concentration (MIC): Enterobacter cloacae TB-718
[6] = tested on: Pseudomonas aeruginosa PP-6; settings: for MIC: Pseudomonas aeruginosa
Proteus mirabilis TB-617 = assay type: cell-based; settings: for Minimum Inhibitory Concentration (MIC): Proteus mirabilis TB-617
[7] = tested on: Staphylococcus aureus FDAJC; settings: for MIC: Staphylococcus aureus, read-out: Minimum Inhibitory Concentration (MIC), Staphylococcus aureus FDAJC; for Minimum Inhibitory Concentration (MIC): Staphylococcus aureus FDAJC
[8] = tested on: Serratia marcescens ATCC 13880; settings: for MIC: Serratia marcescens
[9] = PS24, read-out: Minimum Inhibitory Concentration (MIC), Pseudomonas aeruginosa Ps-24
[10] = PP6, read-out: Minimum Inhibitory Concentration (MIC), Pseudomonas aeruginosa PP-6, tobramycin resistant strain
[11] = ATCC13880, read-out: Minimum Inhibitory Concentration (MIC)
[12] = NIHJJC2, read-out: Minimum Inhibitory Concentration (MIC)
[13] = ATCC13880, read-out: Minimum Inhibitory Concentration (MIC), Serratia marcescens ATCC 13880
[14] = KL38, read-out: Minimum Inhibitory Concentration (MIC)

Row | Structure (SMILES) | MIC (Proteus inconstans In-27) | MIC (Proteus rettgeri Ret 40) | MIC [3, 9] | MIC [6, 10] | MIC [7] | MIC [8, 11] | MIC [1, 12] | Minimum Inhibitory Concentration (MIC) [2] | Minimum Inhibitory Concentration (MIC) (Proteus rettgeri Ret 40) | Minimum Inhibitory Concentration (MIC) [3] | Minimum Inhibitory Concentration (MIC) [4] | Minimum Inhibitory Concentration (MIC) [5] | Minimum Inhibitory Concentration (MIC) (Proteus mirabilis TB-617) | Minimum Inhibitory Concentration (MIC) [7] | MIC [8, 13] | Minimum Inhibitory Concentration (MIC) [1] | Minimum Inhibitory Concentration (MIC) (Proteus inconstans In-27) | MIC [2, 14] | other results
1 | NC[C@H]1O[C@H](O[C@H]2[C@H](O)[C@@H](O[C@H]3O[C@H](CO)[C@@H](O)[C@H](N)[C@H]3O)[C@H](NC(=O)C(O)C3CCCNC3)C[C@@H]2N)[C@H](N)C[C@@H]1O (stereo partly drawn) [(4), 1-N-[2-hydroxy-2-(piperidin-3-yl)acetyl]tobramycin] | > 100 µg/mL | 1.6 µg/mL (≈ 2.63 µM) | 12.5 µg/mL (≈ 20.5 µM) | 25 µg/mL (≈ 41.1 µM) | 0.1 µg/mL (≈ 0.164 µM) | 25 µg/mL (≈ 41.1 µM) |  |  |  |  |  |  |  |  |  |  |  |  | MIC ([1]; NIHJJC2, read-out: Minimum Inhibitory Concentration (MIC), Escherichia coli NIHJ JC-2): 1.6 µg/mL (≈ 2.63 µM); MIC ([2]; KL38, read-out: Minimum Inhibitory Concentration (MIC), Klebsiella pneumoniae Kl-38): 1.6 µg/mL (≈ 2.63 µM); MIC ([4]; Escherichia coli, W677/JR762, read-out: Minimum Inhibitory Concentration (MIC), Escherichia coli W-677/JR-762, tobramycin resistant strain): > 100 µg/mL; MIC ([5]; Enterobacter cloacae, TB718, Enterobacter cloacae TB-718, read-out: Minimum Inhibitory Concentration (MIC)): 1.6 µg/mL (≈ 2.63 µM); MIC (Proteus mirabilis TB-617; Proteus mirabilis, TB617, Proteus mirabilis TB-617, read-out: Minimum Inhibitory Concentration (MIC)): 3.1 µg/mL (≈ 5.09 µM)
2 | NC[C@H]1O[C@H](O[C@H]2[C@H](O)[C@@H](O[C@H]3O[C@H](CO)[C@@H](O)[C@H](N)[C@H]3O)[C@H](NC(=O)C(O)C3CCCN3)C[C@@H]2N)[C@H](N)C[C@@H]1O (stereo partly drawn) [(5), 1-N-[2-hydroxy-2-(pyrrolidin-2-yl)acetyl]tobramycin] | > 100 µg/mL |  |  | 25 µg/mL (≈ 42 µM) |  |  | 12.5 µg/mL (≈ 21 µM) | 6.2 µg/mL | 3.1 µg/mL | 6.2 µg/mL | 25.0 µg/mL | 6.2 µg/mL | 6.2 µg/mL | 0.1 µg/mL | 100 µg/mL (≈ 168 µM) |  |  |  | 
3 | NC[C@H]1O[C@H](O[C@H]2[C@H](O)[C@@H](O[C@H]3O[C@H](CO)[C@@H](O)[C@H](N)[C@H]3O)[C@H](NC(=O)C(O)C3CCCN3)C[C@@H]2N)[C@H](N)C[C@@H]1O (stereo partly drawn) [(6), 1-N-[2-hydroxy-2-(pyrrolidin-2-yl)acetyl]tobramycin] |  |  |  |  |  | 25 µg/mL (≈ 42 µM) |  | 0.8 µg/mL | 0.2 µg/mL | 1.6 µg/mL | 3.1 µg/mL | 0.8 µg/mL | 0.8 µg/mL | 0.1 µg/mL |  | 0.8 µg/mL | > 100.0 µg/mL |  | MIC ([6]; PP6, read-out: Minimum Inhibitory Concentration (MIC)): 6.2 µg/mL (≈ 10.4 µM)
4 | NC[C@H]1O[C@H](O[C@H]2[C@H](O)[C@@H](O[C@H]3O[C@H](CO)[C@@H](O)[C@H](N)[C@H]3O)[C@H](NC(=O)C(O)C3CCCN3)C[C@@H]2N)[C@H](N)C[C@@H]1O (stereo partly drawn) [(7), 1-N-[2-hydroxy-2-(pyrrolidin-2-yl)acetyl]tobramycin] |  |  |  |  |  |  |  |  | 6.2 µg/mL |  | 100.0 µg/mL | 25.0 µg/mL | 12.5 µg/mL | 0.4 µg/mL |  | 50.0 µg/mL | > 100.0 µg/mL | 12.5 µg/mL (≈ 21 µM) | MIC ([3]; PS24, read-out: Minimum Inhibitory Concentration (MIC)): 12.5 µg/mL (≈ 21 µM); Minimum Inhibitory Concentration (MIC) ([6]; Pseudomonas aeruginosa PP-6, tobramycin resistant strain): 50.0 µg/mL; Minimum Inhibitory Concentration (MIC) ([8]; Serratia marcescens ATCC 13880): > 100.0 µg/mL
5 | NC[C@H]1O[C@H](O[C@H]2[C@H](O)[C@@H](O[C@H]3O[C@H](CO)[C@@H](O)[C@H](N)[C@H]3O)[C@H](N)C[C@@H]2N)[C@H](N)C[C@@H]1O [TOB, tobramycin, reference compound] |  | 0.39 µg/mL (≈ 0.834 µM) | 0.39 µg/mL (≈ 0.834 µM) | 50 µg/mL (≈ 107 µM) | 0.05 µg/mL (≈ 0.107 µM) |  | 0.78 µg/mL (≈ 1.67 µM) |  |  |  |  |  |  |  | 3.13 µg/mL (≈ 6.69 µM) |  |  | 3.13 µg/mL (≈ 6.69 µM) | 
